Experimental data taken from patent publication US8835474B2, “Remedy for overactive bladder comprising acetic acid anilide derivative as the active ingredient” (Astellas Pharma Inc., priority 2002, dated 2014).

Experiments:
[1] = tested on: isolated rat bladder smooth muscle; test: Isolated rat bladder smooth muscle relaxation test, antagonism test to contraction by carbachol; type: cell-based; conditions: for EC50: Rattus norvegicus; for EC50 / Maximum Relaxation Rate: contraction by 10^−6 M carbachol, relaxation by 10^−4 M papaverine defined as 100%; for Comparison of Action Strength: compared in the concentration giving a relaxation rate of 15.7%, CGP-12,177A = 1; for Concentration where the compound showed a relaxation rate of 15.7%: maximum relaxation rate of CGP-12,177A
Protocol: (§1) The test was conducted by referring to The Journal of Urology, 1999, volume 161, page 680.
(§2) Male rats of Wistar strain of 10 to 11 weeks age were sacrificed by depletion, whole bladder was isolated by laparotomy and bladder sections each being in a size of about 3×10 mm were prepared in a nutrient solution which was well oxygenated with 95% O2 and 5% CO2 (Krebs-Henseleit solution (118.4 mM NaCl, 4.7 mM KCl, 1.2 mM KH2PO4; 1.2 mM MgSO4, 2.5 mM CaCl2, 25.0 mM NaHCO3 and 11.1 mM glucose)). The section was hung in a Magnus tube in which a nutrient solution (Krebs-Henseleit solution) of 37° C. into which 95% O2 and 5% CO2 were aerated, stabilized for 30 to 60 minutes with a load of 1 g and 10^−6 M carbachol (CCh) or 40 mM potassium chloride (KCl) was repeatedly applied thereto whereupon it was confirmed that reactivity to CCh or KCl became almost constant. After contraction by 10^−6 M CCh or 40 mM KCl was induced and the generated tension was stabilized, a test drug (compound A or CGP-12, 177A) was cumulatively administered in 10-fold ratio with intervals of about 10 minutes and the relaxation reaction was observed. After completion of observation of relaxation reaction at maximum concentration of the test drug, 10^−4 M papaverine was added to induce the maximum relaxation and a relaxation rate was calculated where the relaxation reaction was defined as 100%.

[2] = tested on: isolated rat bladder smooth muscle; test: Isolated rat bladder smooth muscle relaxation test, antagonism test to contraction by potassium chloride; type: cell-based; conditions: for EC50: Rattus norvegicus; for EC50 / Maximum Relaxation Rate: contraction by 40 mM potassium chloride, relaxation by 10^−4 M papaverine defined as 100%; for Comparison of Action Strength: compared in the concentration giving a relaxation rate of 17.4%, CGP-12,177A = 1; for Concentration where the compound showed a relaxation rate of 17.4%: maximum relaxation rate of CGP-12,177A
Protocol: as §1, §2

[3] = tested on: rhythmic bladder contraction; test: Rat rhythmic bladder contraction measurement test; type: in vivo
Protocol: The test was conducted by referring to European Journal of Pharmacology, 2000, volume 407, page 175. Female rats (225 to 290 g) of Wistar strain was used for the test. Under anesthetization with urethane, right and left ureters were ligated and cut and, after that, a polyethylene cannula was inserted from external urinary meatus and fixed. One end of the fixed cannula was connected to a pressure transducer via a three-way cock and pressure in the bladder was measured. Another end thereof was connected to a syringe pump and a physiological saline solution was continuously infused at a constant rate into bladder whereupon rhythmic bladder contraction was induced. The continuous infusion of a physiological saline solution was stopped after a rhythmic bladder contraction was noted. After the rhythmic bladder contraction was stabilized, drug or vehicle was administered from a catheter for administration of drug inserted into femoral vein. The compound A was intravenously administered in increased doses where the ratio was 3 (0.03, 0.1, 0.3, 1 and 3 mg/kg). A group to which vehicle was administered was used as a control group. Parameters for evaluation were number of times and contraction pressure of bladder contraction during 10 minutes from 5 to 15 minutes after the administration of the drug and each group was conducted in n=5. The result is shown in terms of mean value±standard error and Student t-test was conducted for comparison between the two groups.

[4] = tested on: cyclophosphamide-induced overactive bladder model rat; test: Measurement of urination function of overactive bladder model rat induced by cyclophosphamide; type: in vivo; conditions: 1 mg/kg i.v.; 30 minutes after administration versus 30 minutes before
Protocol: Overactive bladder model rats induced by cyclophosphamide were prepared by referring to British Journal of Pharmacology, 2000, volume 130, page 331 and the following test was conducted. Female rats (220 to 230 g) of Wistar strain were used for the test. Under anesthetization with pentobarbital sodium, a catheter for infusion of physiological saline solution and for measurement of pressure in bladder was inserted into bladder from the top of the bladder and fixed while a catheter for administration of a drug was inserted into carotid vein and fixed. Cyclophosphamide (CYP) was administered into abdominal cavity and, after being recovered, the rats were returned to a feeding cage. On the next day of the operation, one end of the catheter inserted into bladder of the rat was connected to a syringe pump via a three-way cock and a physiological saline solution was continuously infused whereby |micturition| reflex was induced. Another end was connected to a pressure transducer and pressure in the bladder was measured. After the micturition reflex was stabilized, 1 mg/kg of the compound A was administered from a catheter for administration of drug which was inserted into carotid vein. Parameter for the evaluation was an average interval for urination from administration of the drug until 30 minutes thereafter. […]

[5] = contraction by potassium chloride

| EC50 [1] [µM] | EC50 [2] [µM] | SMILES | Maximum Relaxation Rate [1] [%] | Comparison of Action Strength ([1]; contraction by carbachol) | Concentration where the compound showed a relaxation rate of 15.7% ([1]; contraction by carbachol) | Maximum Relaxation Rate [2] [%] | Comparison of Action Strength [2, 5] | Concentration where the compound showed a relaxation rate of 17.4% [2, 5] | relaxation action ([1]; antagonism test to contraction by carbachol) | action strength as compared with CGP-12,177A ([1]; contraction by carbachol) [fold] | relaxation action ([2]; antagonism test to contraction by potassium chloride) | action strength as compared with CGP-12,177A [2, 5] [fold] | action of decreasing the contraction frequency versus control group ([3]; 3 mg/kg i.v., Student t-test, p<0.05) | contraction frequency of rhythmic bladder contraction ([3]; i.v. 0.03, 0.1, 0.3, 1 and 3 mg/kg, 5 to 15 minutes after administration, anesthetized female Wistar rats) | contraction pressure of rhythmic bladder contraction ([3]; until intravenous administration of 3 mg/kg) | elongation of micturition interval [4] [%] |
| --- | --- | --- | --- | --- | --- | --- | --- | --- | --- | --- | --- | --- | --- | --- | --- | --- |
| > 100 | > 100 | CC(C)(C)NC[C@H](O)COc1cccc2[nH]c(=O)[nH]c12 [CGP-12, 177A, reference compound] | 15.7 | 1 | 10^−4 M | 17.4 | 1 | 10^−4 M | – | – | – | – | – | – | – | – |
| 5.2 | 11 | Nc1nc(CC(=O)Nc2ccc(CCNC[C@H](O)c3ccccc3)cc2)cs1 [Compound A, (R)-2-(2-aminothiazol-4-yl)-4′-[2-[(2-hydroxy-2-phenylethyl)amino]-ethyl]acetic acid anilide] | 94.0 | 270 | 3.7e-07 M | 69.1 | 383 | 2.6e-07 M | strong relaxation action | 270 | strong relaxation action | 383 | significant | decreased on a dose-dependent manner | did not affect | 17.3 |
